# From patent US9073903B2, “Imidazole-2,4-dione inhibitors of casein kinase 1” (Jasco Pharmaceuticals, LLC, priority 2010, dated 2015)
# Where two headings read alike, the source gives them in different places.
# Experiments:
# DU145 cells = experiment: Inhibition of DU145 cells (MTS cell proliferation); format: cell-based; conditions: for inhibition at 0.4 µM / inhibition at 0.8 µM / inhibition at 1.6 µM / inhibition at 3.2 µM / inhibition at 6.25 µM / inhibition at 12.5 µM / inhibition at 25 µM / inhibition at 50 µM / inhibition at 100 µM / IC50: Homo sapiens, DU-145; for inhibition at 0.4 µM: 0.400 uM; for inhibition at 0.8 µM: 0.800 uM; for inhibition at 1.6 µM: 1.600 uM; for inhibition at 3.2 µM: 3.200 uM; for inhibition at 6.25 µM: 6.250 uM; for inhibition at 12.5 µM: 12.500 uM
# Experimental: Inhibition of DU145 Cells Cells: DU145 cells, ATCC Passage unknown, Mycoplasma free. Medium: DMEM Medium (GIBCO Cat #11995073) supplemented with 10% fetal bovine serum (Hyclone Cat #SH30396.03). Seeding: 750 cells/well (100 μL) into 96-wells plate, incubated overnight at 37° C. in a humidified, 5% CO2 atmosphere. Treatment: Test compounds and Gemcitabine were prepared in a serial dilution (1:2) by culture medium. Fifty microliters (50 uL) of serially diluted solutions were added into each well. The final concentrations of the positive control and test compounds were shown in the graphs. The cells were incubated for 72 hours after addition of the test compounds. MTS: 15 uL of MTS solution (Promega Cat #G5430) was added into each well and incubated with cells for 4 hours at 37° C. in a humidified, 5% CO2 atmosphere. Measurement: Absorbance at 490 nm was measured using MD Spectramax Plus384 spectrophotometer. The regression curves were calculated by the GraphPad Prism 5 using “log(inhibitor) vs response—variable slope”.
# HCT116 cells = experiment: Inhibition of HCT116 cells (MTS cell proliferation); format: cell-based; conditions: for OD value 1 / OD value 2: 490 nm; for OD value 1 / OD value 2 / inhibition at 0.4 µM / inhibition at 0.8 µM / inhibition at 1.6 µM / inhibition at 3.2 µM / inhibition at 6.25 µM / inhibition at 12.5 µM / inhibition at 25 µM / inhibition at 50 µM / inhibition at 100 µM: 72 h; for inhibition at 0.4 µM / inhibition at 0.8 µM / inhibition at 1.6 µM / inhibition at 3.2 µM / inhibition at 6.25 µM / inhibition at 12.5 µM / inhibition at 25 µM / inhibition at 50 µM / inhibition at 100 µM / IC50: Homo sapiens, HCT-116
# Experimental: Inhibition of HCT116 Cells Cells: HCT116 cells, ATCC Passage unknown, Mycoplasma free. Medium: DMEM Medium (GIBCO Cat #11995073) supplemented with 10% fetal bovine serum (Hyclone Cat #SH30396.03). Seeding: 750 cells/well (100 μL) into 96-wells plate, incubated overnight at 37° C. in a humidified, 5% CO2 atmosphere. Treatment: Test compounds and Gemcitabine were prepared in a serial dilution (1:2) by culture medium. Fifty microliters (50 uL) of serially diluted solutions were added into each well. The final concentrations of the positive control and test compounds were shown in the graphs. The cells were incubated for 72 hours after addition of the test compounds. MTS: 15 uL of MTS solution (Promega Cat #G5430) was added into each well and incubated with cells for 4 hours at 37° C. in a humidified, 5% CO2 atmosphere. Measurement: Absorbance at 490 nm was measured using MD Spectramax Plus384 spectrophotometer. The regression curves were calculated by the GraphPad Prism 5 using “log(inhibitor) vs response—variable slope”. Calculation: % of inhibition=(ODzero ctrl−OD compound)/ODzero ctrl*100.
# [1] = 72 hours, replicate 1, read-out: % of inhibition 1
# [2] = 72 hours, replicate 2, read-out: % of inhibition 2
compound,measurement,setting,value
Nc1ccn([C@@H]2O[C@H](CO)[C@@H](O)C2(F)F)c(=O)n1 [Gemcitabine],inhibition at 0.4 µM,DU145 cells; [1],17.4%
same,inhibition at 0.4 µM,DU145 cells; [2],15.6%
same,inhibition at 0.8 µM,DU145 cells; [1],35.2%
same,inhibition at 0.8 µM,DU145 cells; [2],32.9%
same,inhibition at 1.6 µM,DU145 cells; [1],59%
same,inhibition at 1.6 µM,DU145 cells; [2],54.3%
same,inhibition at 3.2 µM,DU145 cells; [1],95.5%
same,inhibition at 3.2 µM,DU145 cells; [2],96.2%
same,inhibition at 6.25 µM,DU145 cells; [1],96.8%
same,inhibition at 6.25 µM,DU145 cells; [2],96.2%
same,inhibition at 12.5 µM,DU145 cells; [1],96.6%
same,inhibition at 12.5 µM,DU145 cells; [2],97.3%
same,inhibition at 25 µM,DU145 cells; [1],97%
same,inhibition at 25 µM,DU145 cells; [2],96.2%
same,inhibition at 50 µM,DU145 cells; [1],97.4%
same,inhibition at 50 µM,DU145 cells; [2],98.9%
same,inhibition at 100 µM,DU145 cells; [1],97.9%
same,inhibition at 100 µM,DU145 cells; [2],97.2%
same,IC50,"DU145 cells; Table 17, read-out: DU145* 50% inhibition concentration",1280 nM
same,IC50,"DU145 cells; Table 26, DU145, 72 hours, read-out: 50% viability conc.",1280 nM
same,IC50,"DU145 cells; Table 26, DU145, 72 hours, read-out: IC50",1170 nM
same,Maximal inhibition %,"DU145 cells; Table 26, DU145, 72 hours",97.55%
same,OD value 1,"HCT116 cells; 0.400 uM, replicate 1",0.799
same,OD value 2,"HCT116 cells; 0.400 uM, replicate 2",0.766
same,OD value 1,"HCT116 cells; 0.800 uM, replicate 1",0.619
same,OD value 2,"HCT116 cells; 0.800 uM, replicate 2",0.723
same,OD value 1,"HCT116 cells; 1.600 uM, replicate 1",0.452
same,OD value 2,"HCT116 cells; 1.600 uM, replicate 2",0.535
same,OD value 1,"HCT116 cells; 3.200 uM, replicate 1",0.083
same,OD value 2,"HCT116 cells; 3.200 uM, replicate 2",0.083
same,OD value 1,"HCT116 cells; 6.250 uM, replicate 1",0.076
same,OD value 2,"HCT116 cells; 6.250 uM, replicate 2",0.065
same,OD value 1,"HCT116 cells; 12.500 uM, replicate 1",0.065
same,OD value 2,"HCT116 cells; 12.500 uM, replicate 2",0.063
same,OD value 1,"HCT116 cells; 25.000 uM, replicate 1",0.075
same,OD value 2,"HCT116 cells; 25.000 uM, replicate 2",0.061
same,OD value 1,"HCT116 cells; 50.000 uM, replicate 1",0.036
same,OD value 2,"HCT116 cells; 50.000 uM, replicate 2",0.046
same,OD value 1,"HCT116 cells; 100.000 uM, replicate 1",0.037
same,OD value 2,"HCT116 cells; 100.000 uM, replicate 2",0.037
same,inhibition at 0.4 µM,"HCT116 cells; 0.400 uM, replicate 1, read-out: % of inhibition 1",18.8%
same,inhibition at 0.4 µM,"HCT116 cells; 0.400 uM, replicate 2, read-out: % of inhibition 2",20.9%
same,inhibition at 0.8 µM,"HCT116 cells; 0.800 uM, replicate 1, read-out: % of inhibition 1",37.2%
same,inhibition at 0.8 µM,"HCT116 cells; 0.800 uM, replicate 2, read-out: % of inhibition 2",25.3%
same,inhibition at 1.6 µM,"HCT116 cells; 1.600 uM, replicate 1, read-out: % of inhibition 1",54.1%
same,inhibition at 1.6 µM,"HCT116 cells; 1.600 uM, replicate 2, read-out: % of inhibition 2",44.7%
same,inhibition at 3.2 µM,"HCT116 cells; 3.200 uM, replicate 1, read-out: % of inhibition 1",91.6%
same,inhibition at 3.2 µM,"HCT116 cells; 3.200 uM, replicate 2, read-out: % of inhibition 2",91.4%
same,inhibition at 6.25 µM,"HCT116 cells; 6.250 uM, replicate 1, read-out: % of inhibition 1",92.3%
same,inhibition at 6.25 µM,"HCT116 cells; 6.250 uM, replicate 2, read-out: % of inhibition 2",93.3%
same,inhibition at 12.5 µM,"HCT116 cells; 12.500 uM, replicate 1, read-out: % of inhibition 1",93.4%
same,inhibition at 12.5 µM,"HCT116 cells; 12.500 uM, replicate 2, read-out: % of inhibition 2",93.5%
same,inhibition at 25 µM,"HCT116 cells; 25.000 uM, replicate 1, read-out: % of inhibition 1",92.4%
same,inhibition at 25 µM,"HCT116 cells; 25.000 uM, replicate 2, read-out: % of inhibition 2",93.7%
same,inhibition at 50 µM,"HCT116 cells; 50.000 uM, replicate 1, read-out: % of inhibition 1",96.4%
same,inhibition at 50 µM,"HCT116 cells; 50.000 uM, replicate 2, read-out: % of inhibition 2",95.2%
same,inhibition at 100 µM,"HCT116 cells; 100.000 uM, replicate 1, read-out: % of inhibition 1",96.3%
same,inhibition at 100 µM,"HCT116 cells; 100.000 uM, replicate 2, read-out: % of inhibition 2",96.2%
same,IC50,"HCT116 cells; Table 17, read-out: HCT-116* 50% inhibition concentration",1290 nM
same,IC50,"HCT116 cells; Table 26, HCT116, 72 hours, read-out: 50% viability conc.",1290 nM
same,IC50,"HCT116 cells; Table 26, HCT116, 72 hours, read-out: IC50",1420 nM
same,Maximal inhibition %,"HCT116 cells; Table 26, HCT116, 72 hours",96.25%
